Data taken from the METLIN SMRT retention time set (Domingo-Almenara et al. 2019).

assay: gradient 5% acetonitrile 3 min, to 50% in 2 min, to 85% in 15 min, held 3 min, 100 µL/min; details: column: Zorbax Extend-C18 2.1 x 50 mm; eluents: water / acetonitrile, 0.1% formic acid
In short: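 Mixtures of ~100 pure standards were chromatographed on a Zorbax Extend-C18 column (2.1 × 50 mm, 1.8 μm) at 100 μL/min using water and acetonitrile, each with 0.1% formic acid. Detection used a quadrupole time-of-flight mass spectrometer in positive and negative ionization mode, and data collection spanned 3 months. Retention time was obtained from adduct peaks picked computationally and each checked manually.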

Compound | RP-LC retention time [s]
COc1ccc(NC(=O)c2c[nH]c3nc(C)ccc3c2=O)cc1 | 776
COc1cccc(-c2cc(=O)c3ccccc3o2)c1N | 948
Cc1cc(=O)n(CC(C)O)c(-c2ccccc2)n1 (stereo not given) | 753
CN1C(=O)C(C)(C)c2cc(S(=O)(=O)N(C)CC(=O)N3CCN(c4ccccn4)CC3)ccc21 | 610
CCn1ccc2ccn(CC(=O)NCc3ccc4c(c3)OCO4)c(=O)c21 | 726
Cc1cccc(NC(=O)c2c(O)c3cccnc3n(-c3ccccc3)c2=O)c1C | 1300
Cn1cc(-c2nc(C(=O)NCc3cccs3)cs2)c2cccnc21 | 851
Cc1ccccc1CNC(=O)CS(=O)Cc1cnn(-c2ccccc2)c1-n1cccc1 (stereo not given) | 875
O=C(Nc1cnc(N2CCOCC2)nc1)c1ccc(F)cc1Cl | 743
CCC(C)Cn1c(CNC(=O)c2ccco2)nc2ccccc21 (stereo not given) | 664
COc1cccc(NC(=O)Nc2nccn(-c3ccc(Br)cc3)c2=O)c1 | 983
O=c1n(Cc2cccc(F)c2)nc2c(S(=O)(=O)N3CCCCC3)cccn12 | 872
Cn1cc(S(=O)(=O)N2CCC(C(=O)NC3CCCCC3)CC2)cc1C(=O)N1CCCC1 | 736
CCOc1ccc(-c2csc(Cc3nc(-c4cccc(C)c4)no3)n2)cc1 | 1310
COc1ccccc1CCc1nc(-c2ccc3oc(C)nc3c2)no1 | 1210
CC1=CC(=O)CC(C)(C)C1(O)/C=C/C(C)=C\C(=O)O (stereo not given) | 683
COc1ccc(OC)c(CNS(=O)(=O)c2cccc(-c3nc(-c4ccc(C)cc4)no3)c2)c1 | 1220
CC(=O)N1CCN(S(=O)(=O)c2cc3c4c(c2)CCC(=O)N4CCC3)CC1 | 647
Cc1cc(Cl)ccc1NC(=O)Cn1ccc2sccc2c1=O | 764
COCCNC(=O)Cn1c(N2CCCC2)nc(COC)cc1=O | 570
Cc1cc(NC(=O)N(C)Cc2nc3cc(C(=O)N(C)C)ccc3n2C)ccc1Br | 662
O=C(Cn1ccn(-c2ccc3c(c2)OCCO3)c(=O)c1=O)Nc1ccccc1F | 655
CCn1cc(-c2ccc(C)cc2)cc1C(=O)NCc1cccnc1 | 713

Compound | RP-LC retention time [s]
Cc1nc(C)c(C(=O)Nc2ccc(C)c(F)c2)s1 | 860
O=C(NC1CC1)c1ccc(-c2ccsc2)nc1 | 688
CCNC(=O)N1CCCN(S(C)(=O)=O)CC1 | 566
O=C(Nc1ccc(-c2nc(-c3ccccc3)co2)cc1)c1cccs1 | 1100
CC1(C)CS(=O)(=O)N(c2cccc(C(=O)N3CCN(c4ccccn4)CC3)c2)C1=O | 608
Cc1ccc2c(c1)sc1nc(C)c(S(=O)(=O)Nc3ccc(Cl)cc3)c(=O)n12 | 1160
CCN1C(=O)c2cccnc2Sc2cc(NC(=O)c3ccc(Br)o3)ccc21 | 842
CCn1c(=O)c(C(=O)NCc2ccc(F)cc2F)nc2cccnc21 | 816
CC1CC(=O)N(CC(=O)Nc2ccc3c(c2)OCCO3)c2ccccc2S1 (stereo not given) | 859
Cc1nc(-c2ccccc2)cc2nn(CC(=O)NCc3ccc(F)cc3F)c(=O)n12 | 902
CC(C)NC(=O)C1CN(S(=O)(=O)c2ccccc2)c2cc(C(C)(C)C)ccc2O1 (stereo not given) | 780
COc1ccc(OC)c(NC(=O)C2CCN(c3cc(N4CCCCC4)ncn3)CC2)c1 | 709
CCC(=O)N1c2ccccc2NC2=C(C(=O)CC(C)(C)C2)C1c1ccc(C#N)cc1 (stereo not given) | 797
O=C(Nc1cccc(F)c1)N1CCN(c2cc(-c3ccncc3)[nH]n2)CC1 | 606
COc1cc(=O)c(C(=O)NC(C)C)nn1-c1ccc(C)cc1 | 694
Cc1ccc(-n2c(=O)c3sccc3n(Cc3nc(-c4ccc(C(F)(F)F)cc4)no3)c2=O)cc1 | 1190
CCCC(NC(=O)c1cccc(Cl)c1)C(=O)Nc1nc2ccccc2[nH]1 (stereo not given) | 742
Cc1ccc(-c2nnc(CC(=O)NC(C)CCc3ccccc3)o2)cc1 (stereo not given) | 840
COc1ccc(NC(=O)Cn2c(C)cc(-c3nnc(-c4ccc(F)cc4)o3)c2C)cc1F | 962
Cc1cccc(NS(=O)(=O)c2ccc(-c3c(C)noc3C)cc2)c1 | 881
COc1ccc(N2CCN(C(=O)C34CCC(C)(C(=O)C3)C4(C)C)CC2)cc1 (stereo not given) | 784
CN(Cc1ccccc1)C(=O)c1cn(-c2cc(N3CCSCC3)ncn2)cn1 | 869
Cc1nc2cc(N3CC(C(=O)Nc4cccc(C)c4C)CC3=O)ccc2o1 (stereo not given) | 785

The next lines start with the values.

RP-LC retention time [s] | Compound
1130 | Cc1ccc(-c2nc(-c3ccc4nnc(C)n4c3)no2)cc1C
833 | COc1ccc(C2Cn3nnc(-c4nc(C)no4)c3CO2)cc1 (stereo not given)
1060 | Cc1ccc(Cc2nc(-c3ccc(S(=O)(=O)N4CCC(C(=O)N5CCCC5)CC4)cc3)no2)cc1
715 | O=C(NCCC1CCN(C(=O)Nc2cc(F)ccc2F)CC1)C1CC1
1080 | Cc1cc2nc(C(=O)Nc3ccc(F)c(Cl)c3)cc(C)n2n1
958 | COC(=O)c1cc(S(=O)(=O)N2CCCC2C(=O)Nc2ccc(Cl)cc2C)cn1C (stereo not given)
730 | O=C(Cn1nc2n(c1=O)CCCCC2)Nc1cccc(Cl)c1
980 | Cc1ccc(NC(=O)N2CCc3cn(C)c4cccc(c34)C2)c(C)c1
1010 | Cc1ccc(CNC(=O)c2nc3cccnc3n(CC(C)C)c2=O)cc1C
646 | CN(CCNC(=O)c1ccc2[nH]c3c(c2c1)CN(C(=O)C1CCC1)CC3)C1CCCCC1
735 | Cc1onc(C(=O)N2CCc3c(c(-c4nncn4CC4CC4)nn3C)C2)c1Cn1cc(Cl)cn1
648 | COc1ccc(C2Cn3cnc(C(=O)N4CCC(C(=O)NC5CC5)CC4)c3CO2)cc1 (stereo not given)
855 | CCc1cc(C2CCCN2C(=O)NCc2cccc(OC)c2)on1 (stereo not given)
687 | Cc1nc(-c2noc(-c3cccnc3)n2)cn1CC(=O)Nc1ccc(F)cc1
653 | O=C(NCc1cccc(Br)c1)C1CCCN(c2ccc(N3CCOCC3)nn2)C1 (stereo not given)
631 | O=C(c1cccs1)N1CCN(c2ccc3nnc(-c4ccco4)n3n2)CC1
619 | O=C(c1ccc(=O)n(CCN2CCCC2)c1)N1CCN(c2ccccc2F)CC1
820 | CC1=C(c2ccc(F)cc2)S(=O)(=O)N=C1N1CCCN(C(=O)NC2CCCC2)CC1
785 | CCc1nc2cc(N3CCCC(C(=O)NC4CCCC4)C3)cnc2nc1CC (stereo not given)
694 | COc1cccc(Nc2cc(C(=O)N3CCSCC3)nc3ccc(C)cc23)c1
1130 | Cc1cc(C)cc(C(=O)N2c3ccccc3CC2c2nc(C3CC3)no2)c1 (stereo not given)
1140 | COc1cc(OC)cc(-c2nc(-c3cn(-c4ccc(C)cc4)nn3)no2)c1

RP-LC retention time [s] | Compound
697 | COc1cccc2sc(N3CCN(C(=O)C4CCN(S(C)(=O)=O)CC4)CC3)nc12
652 | O=S(=O)(c1cccs1)N1CCN(c2cnn3cnnc3c2)CC1
719 | CNC(=O)N1CCCC(c2cccc(C(=O)NCc3cccs3)c2)C1 (stereo not given)
574 | Cc1cccc(Nc2ccc(N3CCN(C(=O)Cc4c[nH]c5ccccc45)CC3)nn2)n1
749 | CCc1ccc(-c2cc(C(F)(F)F)on2)cc1S(=O)(=O)N1CCCCC1CC (stereo not given)
753 | O=C(Cn1nc2c(cc1=O)CCCC2)NCCc1c[nH]c2ccc(F)cc12
652 | COc1ccccc1CNC(=O)C1CCCN(c2nnc3ccccn23)C1 (stereo not given)
586 | CN1c2cc(C(=O)NCc3ccncc3)ccc2C(=O)N2CCCCC21 (stereo not given)
695 | CCC(=O)N1CCc2cc(N3CC(C(=O)NCc4cccs4)CC3=O)ccc21 (stereo not given)
797 | COCCn1nnnc1C1CC2(CCOCC2)C(=O)N1Cc1ccc(C(F)(F)F)cc1 (stereo not given)
826 | CCc1ccccc1Nc1c(-c2nc(C)no2)cnc2nc(C)ccc12
623 | COc1ccc2[nH]cc(CCNC(=O)C3CCCN(c4nc5ncccc5n5cccc45)C3)c2c1 (stereo not given)
680 | COc1ccccc1OCCNC(=O)c1ccc2[nH]c3c(c2c1)CN(C(C)=O)CC3
602 | CCCCN1CCN(Cc2nc(-c3ccc(N4CCCCC4)nc3)no2)CC1
631 | Cc1nn(-c2ccccc2)c(C)c1S(=O)(=O)N1CCC(C(=O)N2CCN(C)CC2)CC1
944 | COc1ccc(N2CC(c3noc(-c4cccc(Cl)c4)n3)CC2=O)cc1OC (stereo not given)
860 | Cc1cc(C(=O)NCc2ccco2)c2c(C)nn(-c3ccccc3Cl)c2n1
580 | O=C(Cn1ccnc1)N1CCCC(OCc2nc(C3CC3)no2)C1 (stereo not given)
952 | O=C(c1cn(-c2cc(N3CCSCC3)ncn2)cn1)N1CCc2ccccc21
954 | CCc1noc(CN2N=C(C(=O)N3CCC(C)CC3)S(=O)(=O)c3ccc(C)cc32)n1
644 | Cc1ccccc1OCC(=O)N1CCN(C2=CC3=NCC(C)N3C=N2)CC1 (stereo not given)
534 | CCn1c(CC2CCN(C(=O)NCC(=O)OC)C2)nc2cccnc21 (stereo not given)
